In US20240361338A1, “DIAGNOSIS AND TREATMENT OF ECTOPIC ENDOMETRIOSIS” (FERRING B.V., priority 2021, published 2024):

Key:
[1] = system: ectopic EMSCs; test: Annexin V apoptosis assay on E-MSCs; type: cell-based, human; details: different concentrations, after 24, 48 and 72 hours
Procedure: FIG. 3: Quinagolide effect on EMSCs apoptosis and proliferation. A: Quinagolide concentration-response curve on ectopic EMSCs in both apoptosis (N=1) and proliferation (N=2) assays. B: Effect of two selected quinagolide doses (10^−5 and 10^−7M) on HUVECs (N=1) and ectopic E-MSCs (N=3) apoptosis and proliferation assays (N=2). Data are represented as mean±SD of the indicated number of experiments and normalized to untreated cells (Control). Annexin V assays were performed using the Muse™ Annexin V & Dead Cell Kit (Millipore), according to the manufacturer's recommendations. Briefly, 20×10^3 cells were plated and after 24 h treated with different concentrations of quinagolide. After 24, 48 and 72 hours, cells were detached and resuspended in Muse™ Annexin V & Dead Cell Kit and the percentage of apoptotic cells (Annexin V+) was measured. Data are expressed as the mean±standard deviation (SD) of the media of absorbance of at least three different experiments and normalized to control.

[2] = system: AKT; test: Western blot of P-AKT in eutopic EMSCs; type: cell-based, human; details: eutopic cell lines, 100 nM quinagolide, 24 hours (text; legend 48 h)
Procedure: FIG. 6: Quinagolide effect on AKT activation. A: Representative western blot analysis and quantification of AKT levels in eutopic and ectopic EMSCs treated for 48 h with 100 nM quinagolide (Q), compared to untreated cells (CTL). B: Representative western blot analysis and quantification of P-AKT levels, normalized to AKT expression, in eutopic and ectopic EMSCs treated for 48 h with 100 nM quinagolide (Q), respect to untreated cells (CTL). C: Representative western blot analysis and quantification of P-AKT levels in HUVECs, ectopic […] basal), and in […] co-culture with HUVECs, treated or not for 24 h with 100 nM quinagolide (Q100 nM). Data are represented as mean±SD of at least two independent experiments, performed on different EMSC lines, and normalized to Vinculin and to untreated cells (CTL). One-way ANOVA was performed: *=p<0.05 and **=p<0.001 vs CTL. Cell pellets were lysed at 4° C. for 15 minutes in RIPA buffer supplemented with protease and phosphatase inhibitors cocktail and PMSF (Sigma-Aldrich). Proteins were quantified using Bradford solution following the manufacturer procedures (Bio-Rad Inc., Berkely, CA, USA) and aliquots of cell lysates containing 50 μg of proteins were run on 4-12% Mini-Protean TGX Stain-Free Gels (Bio-Rad) under reducing conditions and transferred onto PVDF membrane filters using the iBLOT2 system (Life Technologies). […]

[3] = long-term prolactinoma treatment (Schultz et al., 2000; Barlier et al., 2006); cited from earlier work
[4] = system: VEGF; test: VEGF levels in the E-MSC-HUVEC coculture model; type: cell-based, human; details: quinagolide treated coculture
Procedure: An indirect co-culture assembly was obtained plaiting HUVECs and E-MSCs at a ratio of 1:1 (1.5×10^4/cell line) in E-MSC medium in T25 and maintaining the co-culture for 48 h in 37° C. and 5% CO2 atmosphere incubator. HUVECs and E-MSCs cultured alone were used as control for each experiment.

[5] = system: D2 mRNA expression in ectopic EMSCs; test: Real Time PCR of D2 mRNA expression after quinagolide treatment; type: cell-based, human; details: ectopic lines, 48 h of 100 nM quinagolide, vs untreated
Description: FIG. 2: Effect of quinagolide on D2 expression in eutopic and ectopic EMSCs. A: Western blot analysis showing the presence of D2 in […] different passages, and in sorted SUSD2^+ E-MSCs. B: Real Time PCR analysis showing the relative quantification (RQ) of D2 mRNA expression by eutopic and ectopic EMSCs. Data are represented as mean±SD of three different eutopic or ectopic (ovarian and peritoneal) lines and normalized to GAPDH and to eutopic […]: Real Time PCR analysis showing D2 mRNA expression after 48 h of 100 nM quinagolide treatment (Q100) by eutopic and ectopic EMSCs. Data are represented as mean±SD of three different eutopic or ectopic (ovarian and peritoneal) lines and normalized to GAPDH and to untreated […] was performed: *=P<0.05 vs CTL. Trizol Reagent (Ambion) was used to isolate total RNA of different cell preparations, according to the manufacturer's protocol. RNA was then quantified spectrophotometrically using Nanodrop ND-1000. Quantitative real-time PCR was performed for gene expression analysis. Briefly, using the HighCapacity cDNA Reverse Transcription Kit (Applied Biosystems), first-strand cDNA was produced from 200 ng of total RNA. […] Fold change expression respect to control was calculated for all samples.

[6] = system: experimentally induced endometriosis; details: Akyol et al., 2016; cited from earlier work

CCCN1C[C@@H](NS(=O)(=O)N(CC)CC)C[C@@H]2Cc3c(O)cccc3C[C@H]21 [quinagolide, N,N-diethyl-N′-[(3S,4aS,10aR)-6-hydroxy-1-propyl-1,2,3,4,4a,5,10,10a-octahydrobenzo[g]quinolin-3-yl]sulfamide]
apoptosis of E-MSCs (Annexin V+) [1]: did not increase apoptosis | AKT phosphorylation [2]: significant decrease | safety and tolerability [3]: safe and well-tolerated | levels of VEGF in the coculture model [4]: did not reduce | D2 mRNA expression [5]: reduced | outcome in experimentally induced endometriosis rat model [6]: successfully tested
